Laboratory results published in BigSolDB 2.1.

C[C@H]1[C@H](C)CC[C@]2(C(=O)O)CC[C@]3(C)C(=CC[C@@H]4[C@@]5(C)CC[C@H](O)C(C)(C)[C@@H]5CC[C@]43C)[C@H]12
solubility (mole fraction)
Settings	278.15 K	283.15 K	288.15 K	293.15 K	298.15 K	303.15 K	308.15 K	313.15 K	318.15 K	323.15 K
in acetone	0.000384	0.000473	0.00058	0.000707	0.000836	0.001	0.00119	0.00139	0.00162	0.00187
in methanol	0.000447	0.000505	0.000579	0.000662	0.000746	0.000842	0.000955	0.00107	0.00121	0.00135
in water	1.16e-07	1.34e-07	1.55e-07	1.76e-07	2.02e-07	2.28e-07	2.57e-07	2.88e-07	3.18e-07	3.54e-07
